Data published in EP0253662B1, “Pharmaceutical compositions” (ED. GEISTLICH SÖHNE AG FÜR CHEMISCHE INDUSTRIE, priority 1986, dated 1988).
Converted amounts (≈) assume the structure as drawn.

Legend:
[1] = intravenous infusion tolerance (vagotonic side effects); format: in vivo
Source text: This is a surprising effect of considerable value in ensuring that taurolidine can be given intravenously at a rapid rate of infusion, for example in cases of endotoxin shock. In general, the overall intravenous tolerance of taurolidine is increased by the presence of glucose. The same advantages apply also to taurultam.

water-solubility = format: physicochemical; conditions: in water
Protocol: However, the water-solubility of both compounds is relatively low, namely I g/litre in the case of taurolidine and 8 g/litre in the case of taurultam. Relatively large quantities of the compounds are required where toxaemia is well established and even where the compounds are administered in large volumes by intravenous infusion, low solubility can limit their use. In particular, during treatment of patients suffering from septic shock and consequent renal insufficiency, administration of significant quantities of liquid (after an initial period of volume compensation) is contra-indicated and the intravenous infusion solution should be as concentrated as possible. Where glucose is present, this is also beneficial in such cases in order to support the brain cells.

| SMILES | vagotonic side effects, such as meiosis, lachrymation, salivation, bradycardia and excitation ([1]; 2% aqueous taurolidine containing polyvinylpyrrolidone, administered intravenously, high rates of infusion) | vagotonic effects ([1]; administered in glucose solution rather than polyvinylpyrrolidone, intravenously) | solubility (water-solubility) |
| --- | --- | --- | --- |
| O=S1(=O)CCN(CN2CCS(=O)(=O)NC2)CN1 [taurolidine] | short duration vagotonic side effects occur | such vagotonic effects are not observed | – |
| O=S1(=O)CCNCN1 [taurultam] | – | – | 8000 µg/mL (≈ 58.7 mM) |
